Tests used:
[1] = system: retinal pigmented epithelial cells (ARPE-19); assay: protection against H2O2 oxidative stress, microscopy; format: cell-based, human; details: 100 μM to 1000 μM, H2O2 24 hours
Protocol: (§1) Using cultured cell lines as models of choroidal endothelial cells (CEC; RF/6A)^73 and retinal pigmented epithelial cells (ARPE-19)^74, we tested whether polyphosphate (polyP) could protect against stress-induced alterations in cell survival and deposition of terminal complement activation products (C5b-9).
(§2) CEC (FIG. 21) or ARPE-19 (FIG. 22) cells were grown to ˜80% confluence in DMEM+10% serum, and then incubated with varying concentration of hydrogen peroxide (H2O2) for 24 hours in the presence of varying concentrations of polyP1000.

[2] = system: total complement-mediated hemolytic activity; assay: total complement-mediated hemolytic activity assay (4.5% NHS, rabbit erythrocytes); format: cell-based, human; details: rRBC, 30 min, read-out: IC50 (concentration required to achieve half maximal inhibition of lysis), total hemolytic activity
Source text: Erythrocyte lysis assays were used to measure complement-mediated hemolytic activity. Erythrocyte (RBC) lysis assays as previously described^18,37 were used to measure complement activity. For alternative pathway assays and for total hemolytic activity assays, unsensitized rabbit erythrocytes were used. Chicken erythrocytes were used for the terminal pathway assays.
Erythrocytes were washed three times in GVB with the reaction buffers as indicated, and counted using the Advia 120 Hematology System from Siemens (Siemens, Erlangen, Germany). Reactions in 300 μL were allowed to proceed for 30 min at 37° C., after which unlysed cells were pelleted by centrifugation at 600×g. Erythrocyte lysis, reflected by the released hemoglobin in the supernatant, was quantified by measuring the absorbance at 405 nm using the Mithras LB 940 microplate reader from Berthold Technologies (Bad Wildbad, Germany). Percent lysis was determined relative to the control of 100% lysis with H2O. […]
For total hemolytic activity assays, normal human serum (NHS) (4.5%), polyphosphate, and rabbit erythrocytes (rRBC) (6.0×10^7 cells/mL) were added sequentially to initiate lysis. […] Increasing absorbance corresponds to increasing hemoglobin release from lysed red blood cells. The linear region of the curve was determined to be between 20-80% lysis, corresponding to 2.5-4.5% serum. […]

[3] = system: choroidal endothelial cells (CEC; RF/6A); assay: protection against H2O2 oxidative stress, microscopy; format: cell-based; details: 100 μM to 1000 μM, H2O2 24 hours
Protocol: as §1, §2

Compound: O=P(O)(O)O [P1, Orthophosphate]
- protective effect against H2O2 oxidative stress, ARPE-19 [1]: No effect was observed
- IC50 [2]: ~3.5 mM
- protective effect against H2O2 oxidative stress, CEC [3]: No effect was observed
